Here are results for 1 compound from patent US9492471B2, “Methods of treating a disease or disorder associated with Bruton'S Tyrosine Kinase” (Celgene Avilomics Research, Inc., priority 2013, dated 2016).

The inhibition is the drop in the measured response relative to a control, in per cent.

Holding throughout (test): HotSpot kinase profiling
Common to all, as to type: biochemical

Test [1] concerns the target T1, FRK/PTK5 (Homo sapiens, UniProt P42685).
T1 construct: purchased Reaction Biology Corp
The method in brief:
(§1)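 Activity is measured by radiolabel transfer captured on P81 filters after a 2 h room-temperature reaction of kinase, substrate and cofactors. Values are percent inhibition against DMSO.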

The target of test [2] is T2, PKAcg (Homo sapiens, UniProt P22612).
T2 construct: purchased Reaction Biology Corp
T2 sequence (P22612 whole entry): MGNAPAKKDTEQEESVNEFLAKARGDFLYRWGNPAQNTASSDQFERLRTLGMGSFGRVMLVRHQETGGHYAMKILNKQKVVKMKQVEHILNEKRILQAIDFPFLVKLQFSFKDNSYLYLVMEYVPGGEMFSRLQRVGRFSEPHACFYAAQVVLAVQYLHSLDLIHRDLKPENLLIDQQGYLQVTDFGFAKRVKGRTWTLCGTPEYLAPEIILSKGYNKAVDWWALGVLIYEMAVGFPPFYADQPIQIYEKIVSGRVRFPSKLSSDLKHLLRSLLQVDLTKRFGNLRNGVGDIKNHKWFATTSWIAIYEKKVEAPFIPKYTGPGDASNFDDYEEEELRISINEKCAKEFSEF
A digest of the protocol: as §1

For test [3], the target named is T3, TAOK3/JIK (Homo sapiens, UniProt Q9H2K8).
T3 construct: purchased Reaction Biology Corp
T3 sequence (Q9H2K8 1-898): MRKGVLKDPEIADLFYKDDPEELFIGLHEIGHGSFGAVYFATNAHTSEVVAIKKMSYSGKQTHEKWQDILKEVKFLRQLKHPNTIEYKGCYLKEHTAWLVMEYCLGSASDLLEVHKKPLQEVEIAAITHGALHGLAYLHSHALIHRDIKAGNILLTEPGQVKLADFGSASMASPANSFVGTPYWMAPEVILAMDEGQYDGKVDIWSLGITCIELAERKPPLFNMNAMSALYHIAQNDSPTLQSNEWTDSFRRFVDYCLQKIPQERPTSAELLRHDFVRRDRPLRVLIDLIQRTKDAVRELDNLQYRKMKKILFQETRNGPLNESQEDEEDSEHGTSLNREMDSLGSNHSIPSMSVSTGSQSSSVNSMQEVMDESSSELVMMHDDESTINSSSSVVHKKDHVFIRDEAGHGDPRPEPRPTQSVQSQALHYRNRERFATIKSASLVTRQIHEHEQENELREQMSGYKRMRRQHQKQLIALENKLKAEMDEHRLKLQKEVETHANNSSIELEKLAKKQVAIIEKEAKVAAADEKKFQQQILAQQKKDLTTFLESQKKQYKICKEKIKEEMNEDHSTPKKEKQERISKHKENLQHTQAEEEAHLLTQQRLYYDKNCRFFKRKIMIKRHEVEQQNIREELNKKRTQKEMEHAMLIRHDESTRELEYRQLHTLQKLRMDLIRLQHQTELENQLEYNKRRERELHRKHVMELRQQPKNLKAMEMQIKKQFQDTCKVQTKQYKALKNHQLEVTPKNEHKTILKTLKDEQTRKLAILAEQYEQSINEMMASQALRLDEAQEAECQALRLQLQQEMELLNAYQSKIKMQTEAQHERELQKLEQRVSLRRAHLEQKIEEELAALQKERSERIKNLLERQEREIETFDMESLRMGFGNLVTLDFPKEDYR
A digest of the protocol: as §1

Test [4] addresses T4, GRK1 (Homo sapiens, UniProt Q15835).
T4 construct: purchased Reaction Biology Corp
T4 sequence (Q15835 1-563): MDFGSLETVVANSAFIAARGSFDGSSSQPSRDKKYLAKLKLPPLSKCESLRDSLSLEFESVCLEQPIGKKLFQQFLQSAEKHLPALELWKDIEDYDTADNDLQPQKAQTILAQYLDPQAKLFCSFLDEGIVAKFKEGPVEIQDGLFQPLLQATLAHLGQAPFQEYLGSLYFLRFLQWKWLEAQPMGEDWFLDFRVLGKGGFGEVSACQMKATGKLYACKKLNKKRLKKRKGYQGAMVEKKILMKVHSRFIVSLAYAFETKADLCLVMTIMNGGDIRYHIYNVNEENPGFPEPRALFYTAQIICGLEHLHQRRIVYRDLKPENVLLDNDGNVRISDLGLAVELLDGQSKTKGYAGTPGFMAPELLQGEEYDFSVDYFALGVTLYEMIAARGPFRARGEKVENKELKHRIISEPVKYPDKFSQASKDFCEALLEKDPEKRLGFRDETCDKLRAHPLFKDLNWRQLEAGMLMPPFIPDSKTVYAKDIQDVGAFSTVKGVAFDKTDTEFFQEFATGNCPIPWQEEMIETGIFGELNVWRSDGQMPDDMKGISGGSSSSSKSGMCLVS
A digest of the protocol: as §1

Test [5] deals with T5, PYK2 (Homo sapiens, UniProt Q14289).
T5 construct: purchased Reaction Biology Corp
T5 sequence (Q14289 whole entry): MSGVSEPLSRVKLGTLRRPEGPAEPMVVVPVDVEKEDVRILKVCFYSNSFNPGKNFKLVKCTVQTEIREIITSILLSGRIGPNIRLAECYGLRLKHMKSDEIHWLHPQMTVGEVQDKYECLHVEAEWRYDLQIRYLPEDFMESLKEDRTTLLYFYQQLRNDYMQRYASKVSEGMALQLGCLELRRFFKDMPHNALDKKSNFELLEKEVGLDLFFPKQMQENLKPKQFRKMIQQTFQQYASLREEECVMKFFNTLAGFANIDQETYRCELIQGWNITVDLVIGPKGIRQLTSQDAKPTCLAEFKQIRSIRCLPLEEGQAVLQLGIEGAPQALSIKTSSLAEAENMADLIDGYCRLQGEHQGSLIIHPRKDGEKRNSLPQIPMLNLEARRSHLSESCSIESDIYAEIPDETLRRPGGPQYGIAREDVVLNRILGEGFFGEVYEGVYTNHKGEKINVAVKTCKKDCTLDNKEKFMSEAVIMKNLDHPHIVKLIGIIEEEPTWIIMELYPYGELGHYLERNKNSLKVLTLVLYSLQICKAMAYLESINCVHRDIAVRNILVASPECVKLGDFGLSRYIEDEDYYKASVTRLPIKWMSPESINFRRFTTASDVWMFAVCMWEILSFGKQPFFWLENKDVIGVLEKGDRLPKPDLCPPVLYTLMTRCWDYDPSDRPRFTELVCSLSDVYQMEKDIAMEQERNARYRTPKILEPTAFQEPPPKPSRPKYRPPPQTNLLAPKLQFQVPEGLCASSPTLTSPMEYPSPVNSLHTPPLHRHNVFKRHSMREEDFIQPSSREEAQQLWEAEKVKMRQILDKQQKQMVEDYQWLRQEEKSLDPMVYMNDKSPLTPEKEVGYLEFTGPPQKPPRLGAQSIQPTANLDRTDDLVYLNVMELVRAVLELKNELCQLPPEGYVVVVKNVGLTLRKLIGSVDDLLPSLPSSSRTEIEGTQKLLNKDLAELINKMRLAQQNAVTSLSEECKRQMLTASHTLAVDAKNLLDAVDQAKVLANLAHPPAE
The method in brief: as §1

Setting [6] is: read-out: % Enzyme Activity (relative to DMSO controls) Run 1.
Where [7] appears, read: read-out: % Enzyme Activity (relative to DMSO controls) Run 2.

Structures are written as SMILES. Like-named read-outs stand apart in the source and are kept apart here.

T1 sequence (P42685 whole entry): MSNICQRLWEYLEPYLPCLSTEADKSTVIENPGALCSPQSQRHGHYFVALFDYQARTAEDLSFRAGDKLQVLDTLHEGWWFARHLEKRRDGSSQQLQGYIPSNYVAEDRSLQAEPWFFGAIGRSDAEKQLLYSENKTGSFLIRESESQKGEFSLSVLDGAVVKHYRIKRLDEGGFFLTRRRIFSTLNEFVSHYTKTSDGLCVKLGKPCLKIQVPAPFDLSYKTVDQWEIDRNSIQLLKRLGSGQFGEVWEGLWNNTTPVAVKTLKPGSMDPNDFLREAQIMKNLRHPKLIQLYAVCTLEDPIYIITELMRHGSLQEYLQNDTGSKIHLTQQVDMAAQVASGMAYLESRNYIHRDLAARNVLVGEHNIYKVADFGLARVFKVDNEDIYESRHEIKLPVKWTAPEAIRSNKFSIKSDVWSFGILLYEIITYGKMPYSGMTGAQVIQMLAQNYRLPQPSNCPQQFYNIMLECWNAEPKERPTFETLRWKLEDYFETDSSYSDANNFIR

As to `C=CC(=O)Nc1cccc(Nc2nc(Nc3ccc(OCCOC)c(F)c3)ncc2F)c1` [Compound 2], the inhibition at 3 µM is 0.75% in test [1]; -27.8% in test [2]; 7.74% in test [3]; -3.47% in test [4]; 29.6% in test [5]. Also, the remaining activity at 3 µM in test [1] (setting [6]) turned out to be 101%; in test [1] (setting [7]) it was 98%; in test [2] (setting [6]) it was 128%; in test [2] (setting [7]) it was 128%; in test [3] (setting [6]) it was 94.5%; in test [3] (setting [7]), 90%. The remaining activity at 3 µM in test [4] (setting [6]) was 104%; in test [4] (setting [7]), 103%; in test [5] (setting [6]), 70.6%; in test [5] (setting [7]) it was 70.1%.
